EC50 data for ten molecules are collected here from patent publication US8889726B2, “Chemica compounds” (priority 2011, dated 2014).

In experiment [1] the test system is HCV genotype 1b subgenomic replicon (ET cell line). In words: HCV replicon assay, genotype 1b (luciferase). It counts as cell-based. The following applies: genotype 1b replicon ET cell line, luciferase activity at 48 hours. How it is done:
(§1) Protocol for Testing and Data Analysis of Compounds in the HCV Replicon Assay
(§2) Compounds were assayed for activity against HCV using the genotype 1a and 1b subgenomic replicon model systems. Stable cell lines bearing the genotype 1a and 1b replicons were used for screening of compounds. Both replicons are bicistronic and contain the firefly luciferase gene. The ET cell line is stably transfected with RNA transcripts harboring a I389luc-ubi-neo/NS3-3′/ET replicon with firefly luciferase-ubiquitin-neomycin phosphotransferase fusion protein and EMCV-IRES driven NS3-5B polyprotein containing the cell culture adaptive mutations (E1202G; T1280I; K1846T) (Krieger at al, 2001 and unpublished). The genotype 1a replicon is a stable cell line contains the H77 NS3-5B polyprotein sequence, modified to contain the firefly luciferase gene and encode for neomycin resistance. The genotype 1a replicon contains several adaptive changes (NS4B Q31H, NS5A K68R, NS5A S232I). The cells were grown in DMEM, supplemented with 10% fetal calf serum, 2 mM Glutamine, Penicillin (100 IU/mL)/Streptomycin (100 μg/mL), lx nonessential amino acids, and 250-500 μg/mL G418 (“Geneticin”). They were all available through Life Technologies (Bethesda, Md.). The cells were plated at 5×10^3 cells/well in 384 well plates containing compounds. The final concentration of compounds ranged between 0.03 pM to […] and the final DMSO concentration of 0.5-1%.
(§3) Luciferase activity was measured 48 hours later by adding a Steady glo reagent (Promega, Madison, Wis.). Percent inhibition of replication data was plotted relative to no compound control. Under the same condition, cytotoxicity of the compounds was determined using cell titer glo (Promega, Madison, Wis.). EC50s were determined from an 11 point dose response curve using 3-4-fold serial dilution for each compound, which spans a concentration range >1000 fold. The level of inhibition for each compound was determined with Activity Base or with BioAssay plus the Excel XC50 module. Percent inhibition was determined with the following equation where the cross-talk corrected value is the value from the test well, the compound positive control mean is the average value of the wells with no compound present, and the DMSO negative control mean is the average value of the wells with DMSO but no cells present.
(§4) [formula] These normalized values are exported to EC50 where they are plotted against the molar compound concentrations using the standard four parameter logistic equation:
(§5) [formula] Where: • A=minimum y D=slope factor • B=maximum y x=log10 compound concentration [M] • C=log10EC50 pEC50=−C
For orientation: Replicon systems follow genome replication, usually without infectious particles.

Experiment [2] relates to HCV genotype 1a subgenomic replicon. In words: HCV replicon assay, genotype 1a (luciferase). It counts as cell-based. Particulars: read-out: Replicon 1A EC50. How it is done: as §1, §2, §3, §4, §5

Structures are written as SMILES. Read-outs that look alike come from different tables or passages of the source.

Regarding `COC(=O)N[C@H](C(=O)N1[C@H](c2ncc(-c3ccc4c(c3)Cc3ccc(-c5cnc([C@@H]6C[C@H]7CCC[C@H]7N6C(=O)[C@H](NC(=O)OC)[C@H](C)OC)[nH]5)cc3C4)[nH]2)C[C@@H]2CCC[C@@H]21)[C@@H](C)OC` [Example 5, dimethyl ((2S,2′S,3R,3′R)-((2S,2′S,3aS,3a′S,6aS,6a′S)-2,2′-(5,5′-(9,10-dihydroanthracene-2,6-diyl)bis(1H-imidazole-5,2-diyl))bis(hexahydrocyclopenta[b]pyrrole-2,1(2H)-diyl))bis(3-methoxy-1-oxobutane-2,1-diyl))dicarbamate], the EC50 in experiment [1] (Hepatitis C virus) is 0.02 nM; in experiment [2] (Hepatitis C virus, 48 h), 0.032 nM.

`COC(=O)N[C@H](C(=O)N1[C@H](c2ncc(-c3ccc4c5ccc(-c6cnc([C@@H]7C[C@@H]8CCC[C@@H]8N7C(=O)[C@@H](NC(=O)OC)[C@@H](C)OC)[nH]6)cc5n(C)c4c3)[nH]2)C[C@@H]2CCC[C@@H]21)[C@@H](C)OC` [Example 7, dimethyl ((2S,2′S,3R,3′R)-((2S,2′S,3aS,3a′S,6aS,6a′S)-2,2′-(5,5′-(9-methyl-9H-carbazole-2,7-diyl)bis(1H-imidazole-5,2-diyl))bis(hexahydrocyclopenta[b]pyrrole-2,1(2H)-diyl))bis(3-methoxy-1-oxobutane-2,1-diyl))dicarbamate]: the EC50 in experiment [1] stood at 0.032 nM; in experiment [2] (genotype 1a replicon stable cell line (H77 NS3-5B), luciferase activity at 48 hours), 0.16 nM.

`COC(=O)N[C@H](C(=O)N1[C@H](c2nc(-c3ccc4c(c3)-c3ccc(-c5c[nH]c([C@@H]6C[C@@H]7CCC[C@@H]7N6C(=O)[C@@H](NC(=O)OC)[C@@H](C)OC)n5)cc3-4)c[nH]2)C[C@@H]2CCC[C@@H]21)[C@@H](C)O` [Example 3, Methyl [(1S,2R)-1-{[(2S,3aS,6aS)-2-[4-(6-{2-[(2S,3aS,6aS)-1-((2S,3R)-3-hydroxy-2-{[(methyloxy)carbonyl]amino}butanoyl)octahydrocyclopenta[b]pyrrol-2-yl]-1H-imidazol-4-yl}-2-biphenylenyl)-1H-imidazol-2-yl]hexahydrocyclopenta[b]pyrrol-1(2H)-yl]carbonyl}-2-(methyloxy)propyl]carbamate]: the EC50 in experiment [1] (Hepatitis C virus) amounted to 0.008 nM; in experiment [2] (Hepatitis C virus, 48 h), 0.013 nM.

Consider `COC(=O)N[C@H](C(=O)N1[C@H](c2ncc(-c3ccc4c(c3)-c3ccc(-c5cnc([C@@H]6C[C@@H]7CCC[C@@H]7N6C(=O)[C@@H](NC(=O)OC)[C@@H](C)OC)[nH]5)cc3-4)[nH]2)C[C@@H]2CCC[C@@H]21)[C@@H](C)OC` [Example 2, dimethyl ((2S,2′S,3R,3′R)-((2S,2′S,3aS,3a′S,6aS,6a′S)-2,2′-(5,5′-(biphenylene-2,6-diyl)bis(1H-imidazole-5,2-diyl))bis(hexahydrocyclopenta[b]pyrrole-2,1(2H)-diyl))bis(3-methoxy-1-oxobutane-2,1-diyl))dicarbamate], for which the EC50 in experiment [1] (Hepatitis C virus) came out at 0.008 nM; in experiment [2] (Hepatitis C virus, 48 h) it was 0.01 nM.

Turning to `COC(=O)N[C@H](C(=O)N1[C@@H]2CCC[C@@H]2C[C@H]1c1ncc(-c2ccc3c(c2)Oc2ccc(-c4cnc([C@@H]5C[C@@H]6CCC[C@@H]6N5C(=O)[C@@H](NC(=O)OC)[C@@H](C)OC)[nH]4)cc2O3)[nH]1)[C@@H](C)OC` [Example 10, Dimethyl ((2S,2′S,3R,3′R)-((2S,2′S,3aS,3a′S,6aS,6a′S)-2,2′-(5,5′-(dibenzo[b,e][1,4]dioxine-2,7-diyl)bis(1H-imidazole-5,2-diyl))bis(hexahydrocyclopenta[b]pyrrole-2,1(2H)-diyl))bis(3-methoxy-1-oxobutane-2,1-diyl))dicarbamate], the EC50 in experiment [1] (Hepatitis C virus) is 0.01 nM; in experiment [2] (Hepatitis C virus, 48 h), 0.01 nM.

Turning to `COC(=O)N[C@H](C(=O)N1[C@H](c2ncc(-c3ccc4c(c3)-c3ccc(-c5cnc([C@@H]6C[C@@H]7CCC[C@@H]7N6C(=O)[C@@H](NC(=O)OC)[C@@H](C)O)[nH]5)cc3-4)[nH]2)C[C@@H]2CCC[C@@H]21)[C@@H](C)O` [Example 1], the EC50 in experiment [1] (Hepatitis C virus) stood at 0.006 nM; in experiment [2] (Hepatitis C virus, 48 h), 0.011 nM.

`COC(=O)N[C@H](C(=O)N1[C@@H]2CCC[C@@H]2C[C@H]1c1ncc(-c2ccc3c(c2)S(=O)(=O)c2cc(-c4cnc([C@@H]5C[C@@H]6CCC[C@@H]6N5C(=O)[C@@H](NC(=O)OC)[C@@H](C)OC)[nH]4)ccc2-3)[nH]1)[C@@H](C)OC` [Example 9]: the EC50 was 0.032 nM in experiment [1] (Hepatitis C virus) and 0.08 nM in experiment [2] (Hepatitis C virus, 48 h).

Turning to `COC(=O)N[C@H](C(=O)N1[C@@H]2CCC[C@@H]2C[C@H]1c1ncc(-c2ccc3c(c2)C(F)(F)c2cc(-c4cnc([C@@H]5C[C@@H]6CCC[C@@H]6N5C(=O)[C@@H](NC(=O)OC)[C@@H](C)OC)[nH]4)ccc2-3)[nH]1)[C@@H](C)OC` [Example 8, Dimethyl ((2S,2′S,3R,3′R)-((2S,2′S,3aS,3a′S,6aS,6a′S)-2,2′-(5,5′-(9,9-difluoro-9H-fluorene-2,7-diyl)bis(1H-imidazole-5,2-diyl))bis(hexahydrocyclopenta[b]pyrrole-2,1(2H)-diyl))bis(3-methoxy-1-oxobutane-2,1-diyl))dicarbamate], the EC50 is 0.016 nM in experiment [1] (Hepatitis C virus) and 0.032 nM in experiment [2] (Hepatitis C virus, 48 h).

In the case of `COC(=O)N[C@H](C(=O)N1[C@H](c2ncc(-c3ccc4c(c3)Cc3cc(-c5cnc([C@@H]6C[C@H]7CCC[C@H]7N6C(=O)[C@H](NC(=O)OC)[C@H](C)OC)[nH]5)ccc3-4)[nH]2)C[C@@H]2CCC[C@@H]21)[C@@H](C)OC` [Example 4], the EC50 stood at 0.02 nM in experiment [1] (Hepatitis C virus) and 0.04 nM in experiment [2] (Hepatitis C virus, 48 h).

In the case of `COC(=O)N[C@H](C(=O)N1[C@H](c2ncc(-c3ccc4c(c3)CCc3cc(-c5cnc([C@@H]6C[C@H]7CCC[C@H]7N6C(=O)[C@H](NC(=O)OC)[C@H](C)OC)[nH]5)ccc3-4)[nH]2)C[C@@H]2CCC[C@@H]21)[C@@H](C)OC` [Example 6, Dimethyl ((2S,2′S,3R,3′R)-((2S,2′S,3aS,3a′S,6aS,6a′S)-2,2′-(5,5′-(9,10-dihydrophenanthrene-2,7-diyl)bis(1H-imidazole-5,2-diyl))bis(hexahydrocyclopenta[b]pyrrole-2,1(2H)-diyl))bis(3-methoxy-1-oxobutane-2,1-diyl))dicarbamate], the EC50 was found to be 0.016 nM in experiment [1] (Hepatitis C virus) and 0.016 nM in experiment [2] (Hepatitis C virus, 48 h).

Broadly, the EC50 is the midpoint of the concentration-response curve.
